From patent publication US20210106601A1, “MANGIFERIN AS A PROTECTIVE AGENT AGAINST MITOCHONDRIAL DNA DAMAGE AND SKIN-CARE COMPOSITIONS COMPRISING SAME” (priority 2018, published 2021)
Values after ≈ are worked out from the molar mass of the structure shown. Values joined by “and” are separate entries in the source; they are usually repeats but may differ in a detail not shown here. Identical values can stand only once.

Legend:
[1] = test system: HDFn cells; assay: Cell viability assay (MTS cell proliferation assay); assay type: cell-based; conditions: unfiltered extract, 50 to 50,000 μg/ml, 24 hours incubation
Experimental: Stock solutions of mangiferin were made by dissolving mangiferin extract in water, and diluting to the required concentration. The stock solutions were then added to HDFn cells at a range of concentrations from 50 μg/ml to 50,000 μg/ml, and incubated for 24 hours under standard culture conditions.

[2] = test system: HDFn cells; assay: mtDNA damage after UV irradiation (1 kb real-time qPCR assay); assay type: cell-based, human; conditions: UV 2 SED
Experimental: 1,000 μg/ml solutions of mangiferin extract were prepared as outlined in Example 1 above. 3 ml of the mangiferin solution was added to a 45 mm diameter quartz glass petri dish. Quartz was chosen as it is known to permit both UVA and UVB rays to pass through. The quartz glass dish was then placed on top of a slightly smaller dish containing the cultured HDFn cells. The cells were then irradiated through the quartz glass petri dish, using either a Cleo Performance (iSOLde, Germany) or Aramid B (Cosmedico, Germany) lamp at 2 standard erythemal doses (SED). […]
Following irradiation, total DNA was extracted and mtDNA damage analysed using a 1 kb real-time qPCR assay. mtDNA damage is expressed as a Ct value (where a 1 Ct difference is equivalent to a 2-fold difference in damage), and is based on the observation that damaged mtDNA takes longer to be amplified via qPCR. To find the acellular UV transmission of extracts, the dish containing the diluted extract was placed on top of a spectroradiometer and the amount of UV which passes through the dish was measured. All statistical differences were determined using one-way ANOVA with Dunnett's test to compare to a control column (0.05*, P<0.01**, P<0.001***). […]

[3] = UV absorbance scan; assay type: physicochemical; conditions: 1,000 μg/ml, quartz cell
Experimental: A UV absorbance scan was performed on mangiferin extract at a concentration of 1,000 μg/ml, and the results are shown in FIG. 6. The spectrometer was set up using a quartz cell with a 1.05 ms integration time (the minimum for the spectrometer) and the spectra was based on an average of 100 samples.
UV absorbance scans were performed on stock solutions of the mangiferin-complexes prepared in example 8 above and the results are shown in FIG. 7. The spectrometer was set up using a quartz cell with a 1.05 ms integration time (the minimum for the spectrometer) and the spectra was based on an average of 100 samples. The mangiferin-only solution required to be diluted to 25% of its original concentration to reach the point at which it no longer saturated the spectrometer, while mangiferin-complex solutions were diluted to 2.5%. However, good absorbance was then observed for all of the samples, with the characteristic peaks at ^˜320 nm and ^˜370 nm clearly visible.

[4] = Solubility of mangiferin in deionised water; assay type: physicochemical
Experimental: In order to assess the solubility of mangiferin in aqueous solution, 0.18 g of mangiferin was added to 100 mls of deionised water. […] The solution was then Buchner filtered, and the mass of the undissolved material weighed. Solubility was calculated based on the difference between the initial mass of mangiferin and that of the undissolved material.

Compound: O=c1c2cc(O)c(O)cc2oc2cc(O)c(C3OC(CO)C(O)C(O)C3O)c(O)c12 (stereo not shown) [mangiferin, 1,3,6,7-tetrahydroxy-2-[3,4,5-trihydroxy-6-(hydroxymethyl)oxan-2-yl]xanthen-9-one]
- concentration up to which cell viability is seen (cell death above) [1]: ~5,000 μg/ml
- increase in mtDNA damage compared with foil-wrapped (non-irradiated) samples ([2]; 1,000 μg/ml solution in quartz dish above cells, water control 3.1 Cts): 1.6 Cts
- fold increase in mtDNA damage compared with foil-wrapped samples ([2]; 1,000 μg/ml, 1 Ct = 2-fold, water control approximately 8-fold): approximately 3 fold
- UV absorbance peaks [3]: ~320 nm and ~370 nm
- solubility in water (in words) ([4]; even after stirring for 24 hours): very insoluble in water
- solubility at 4 h ([4]; thermodynamic from solid, deionised water, 40° C., 500 rpm, stirring time 4 hours): 43 µg/mL (≈ 102 µM)
- solubility at 24 h ([4]; thermodynamic from solid, deionised water, 40° C., 500 rpm, stirring time 24 hours): 139 µg/mL (≈ 329 µM)
